Measured values as given in patent US20130274838A1, “OPTICAL CONTROL OF CARDIAC FUNCTION” (The Research Foundation of State University of New York, priority 2010, published 2013).

Tests used:
[1] = tested on: cell pairs of adult canine ventricular myocytes and HEK-ChR2 (gap junctional coupling); test: Carbenoxolone uncoupling of tandem cell units, dual patch clamp with optical pacing; assay type: cell-based; details: 200 μM carbenoxolone perfusion, light-triggered action potentials before, during and after washout (FIG. 5f)
Method: Dual patch clamp experiments were performed within 48 hours after plating. Briefly, experiments were carried out on heterologous (HEK-ChR2— canine myocyte) cell pairs within 48 hours after plating, as described previously. A dual whole-cell voltage-clamp method was used to control and record the membrane potential of both cells and to measure associated membrane and junctional currents. Each cell of a pair was voltage clamped at the same potential by two separate patch clamp amplifiers (Axopatch 200, Axon Instruments). To record junctional conductance, brief voltage steps (±10 mV, 400 ms) were applied to one cell of a pair, whereas the other cell was held at constant voltage and the junctional currents were recorded from the unstepped cell. Membrane and action potentials were recorded in current-clamp mode. For electrical recordings, glass coverslips with adherent cells were transferred to an experimental chamber mounted on the stage of an inverted microscope (Olympus-IX71) equipped with a fluorescence imaging system. […] When filled, the resistance of the pipettes measured 1-4MΩ. […] Contractility movies were recorded in response to optical pacing before and during administration of carbenoxolone, and upon washout to assess the role of gap junctional coupling in the functionality of the tandem cell unit.

[2] = tested on: cardiac syncytium of neonatal rat cardiomyocytes and HEK-ChR2 (gap junctional coupling); test: Carbenoxolone uncoupling in cardiac syncytium, contractility under optical pacing; assay type: cell-based; details: 200 μM carbenoxolone for 20 min without perfusion, contractility in response to optical pacing
Method: Carbenoxolone, CBX, (Sigma), a gap junctional uncoupler, was used at a concentration 200 μM in the dual-patch experiments with canine cardiomyocytes and HEK-ChR2 or in the cardiac syncytium of neonatal rat cardiomyocytes and HEK-ChR2. In the latter case, CBX was applied for 20 min (without perfusion) in the co-cultures of HEK-ChR2 cells and cardiomyocytes. Contractility movies were recorded in response to optical pacing before and during administration of carbenoxolone, and upon washout to assess the role of gap junctional coupling in the functionality of the tandem cell unit. Microscopic imaging for confirmation of gene expression or for documenting contractions by optical excitation was done with the Olympus FluoView™ FV1000 confocal system at room temperature. An EMCCD camera (ImagEM EMCCD camera from Hamamatsu, Bridgewater, N.J.) attached to the Olympus FluoView™ FV1000 microscope was used to record contractility movies at 20 fps with 60× oil lens (NA=1.42) using SlideBook 5 software (Intelligent Imaging Innovations, Denver, Colo.). In addition, contractility response was also documented by automatic optical tracking of cell length at 250 Hz using an IonOptix videosystem (IonOptix) attached to a Nikon TE2000 inverted microscope.

CC1(C)[C@@H](OC(=O)CCC(=O)O)CC[C@]2(C)[C@H]3C(=O)C=C4[C@@H]5C[C@@](C)(C(=O)O)CC[C@]5(C)CC[C@@]4(C)[C@]3(C)CC[C@@H]12 [cabenoxolone, carbenoxolone]
effect of pharmacological uncoupling on light-sensitivity of the myocytes in the TCUs [1]: abolished the light-sensitivity of the myocytes in the TCUs
effect of pharmacological uncoupling on light-sensitivity of the myocytes in the TCUs [2]: abolished the light-sensitivity of the myocytes in the TCUs
